In a melting point compilation (Tetko et al.; mined from patent text by program, amines drawn as free bases though some values may be those of a salt):

SMILES | melting point [°C]
CC(=O)Nc1cccc2c1C(=O)c1c-2n[nH]c1-c1ccc(C(F)(F)F)cc1 | > 300
CCn1c(=O)c2[nH]c(/C=C/c3ccc(OC)c(OC)c3)nc2n(CC)c1=O | 208 to 211
COC(=O)c1ccn2c1C(C(=O)OC)CC2 (stereo not given) | 70 to 71
Cc1nc2c(Br)cc(Br)cn2c1C | > 90
Cc1cccc2c(=O)[nH]cc(Br)c12 | 201 to 210
O=C(NCCNCC(O)COc1ccc(O)cc1F)C1CCOCC1 (stereo not given) | 101 to 104
COc1ccc(-n2nc(C#N)cc2-c2ccc(S(C)(=O)=O)cc2)cc1Cl | 201 to 203
BrCc1ncc(Br)cn1 | 55 to 57
O=C1c2cc(F)cc(F)c2CC[C@@H]1NC(=O)C(F)(F)F | 142 to 145
CC(CCCc1ccccc1)n1nnc2c(=O)[nH]c(C(=O)c3ccccc3)nc21 (stereo not given) | 105
CCCCCCCCCCCCCCCCCC(=O)NN(C(=O)CCCCCCCCCCCCCCCCC)C(=O)CCCCC(=O)NN | 244
CC(N(O)C(N)=O)C1(OCc2nc3ccccc3s2)C=CC(c2ccccc2)=CC1 (stereo not given) | 190 to 191
CCOc1ccc(-c2ccc3c(c2)C=C(C(=O)OC)CCN3)cc1OCC | 159 to 164
CCOC(=O)c1cn2c(=O)n(C)c3ccccc3n2c1=O | 243 to 244
O=C(O)CNc1ccco1 | 195 to 199
CC(C)C(=O)NC1=NN(c2cccc(C(F)(F)F)c2)CC1 | 167 to 168
O=C1CCc2cc(Cl)c(S(=O)(=O)NCc3ccccc3)cc21 | 228 to 231
CC(CCCc1ccccc1)Oc1cc(O)c2c(c1)CC(C)(C)CC2CC(N)=O (stereo not given) | 67 to 72
c1cc(OCC2CO2)c2nonc2c1 (stereo not given) | 75
CCOC(=O)c1cn(NCC(=O)OC(C)(C)C)c2c(F)c(F)c(F)cc2c1=O | 99.5 to 102

SMILES | melting point [°C]
COc1ccccc1-n1c(=O)[nH]c2c(C(N)=O)nc(-c3cccc(C#N)c3)nc21 | 316 to 318
CCCc1nc2c(N)nc3cc(OCCNS(C)(=O)=O)ccc3c2s1 | 148 to 151
CN1C(=O)c2ccccc2CC12c1ccccc1C(=O)N2C (stereo not given) | 202 to 203
C=C(c1cc(F)ccc1OCc1c(Cl)cccc1Cl)n1ccnc1 | 108 to 110
Cc1nccn1-c1nc(-c2ccc(Cl)cc2)c(CCCCO)s1 | 98 to 99
CC(C)(NC(=O)c1cc2c(n(CC3CCCCC3)c1=O)CCCCCC2)C(=O)O | 177 to 180
CNC1CCN(c2c(F)cc3c(=O)c(C(=O)O)cn(C4CC4)c3c2C)CC1C (stereo not given) | 233 to 235
COc1ccc(CS(=O)(=O)C(C)(Cc2ccccc2)C(=O)N(O)O)cc1 (stereo not given) | 58 to 59
COc1ccc(C(=O)Nc2c(Cl)cncc2Cl)c2c1oc1ccc([N+](=O)[O-])cc12 | 315 to 317
O=C(NCc1ccccn1)Nc1cc(N2CC(c3ccccc3F)CC2=O)ccn1 (stereo not given) | 173 to 174
CC(C)C(OC(=O)/C=C/c1ccccc1)OC(=O)NC1(C(=O)O)CC1 (stereo not given) | 148 to 150
CCCCc1nc(C(F)(F)F)c(C(=O)OCC)n1O | 77.5 to 80.5
NC(=O)Cn1c(-c2ccc(Br)cc2)nc2cccnc21 | > 250
O=C(c1ccc(Cl)cc1)N1CCCC2=C1CCc1cc(Cl)ccc12 | 189 to 191
CC(=O)Nc1nccc(Oc2ccc3c(C(=O)Nc4cccc(C(F)(F)F)c4)cccc3c2)n1 | 216 to 217
CN1c2ccc(C#CCOC3CCCCO3)cc2C(=O)CS1(=O)=O (stereo not given) | 107 to 108
CC1OC(Sc2ccccc2)C(OCc2ccccc2)C(OC(=O)c2ccccc2)C1OC(=O)c1ccccc1 (stereo not given) | 98 to 100
O=C1CCc2c(-c3ccncc3)sc(-c3ccc(C(F)(F)F)cc3)c21 | 158 to 160
FC(F)(F)c1cccc(N2CCC(N=Cc3cnc4ccccc4c3)=N2)c1 | 209 to 210
O=[N+]([O-])c1cc(C(F)(F)F)cc2nc(C(F)(F)F)[nH]c12 | 95 to 97
